According to paper PMC9112895, “Selective Inhibition of Plasmodium falciparum ATPase 6 by Artemisinins and Identification of New Classes of Inhibitors after Expression in Yeast” (Antimicrobial Agents and Chemotherapy, 2022):
Marks after values point to notes of the source that are not given here.

Legend:
PfATP6 [1] = biological target: T1, PfATP6 (Plasmodium falciparum, UniProt Q08853); assay: cell-based; assay type: cell-based; set-up: pUGpd containing the yeast-optimized coding region of PfATP6 from Plasmodium falciparum; expressed in transfected cells; host or cells: Saccharomyces cerevisiae K667 and K667Δpdr5::HIS; conditions: for Fold difference: IC50 K667[PfATP6] versus K667Δpdr5[PfATP6]; for inhibition of PfATP6 in compound screen: growth inhibition, K667Δpdr5[PfATP6]
T1 sequence (Q08853 whole entry): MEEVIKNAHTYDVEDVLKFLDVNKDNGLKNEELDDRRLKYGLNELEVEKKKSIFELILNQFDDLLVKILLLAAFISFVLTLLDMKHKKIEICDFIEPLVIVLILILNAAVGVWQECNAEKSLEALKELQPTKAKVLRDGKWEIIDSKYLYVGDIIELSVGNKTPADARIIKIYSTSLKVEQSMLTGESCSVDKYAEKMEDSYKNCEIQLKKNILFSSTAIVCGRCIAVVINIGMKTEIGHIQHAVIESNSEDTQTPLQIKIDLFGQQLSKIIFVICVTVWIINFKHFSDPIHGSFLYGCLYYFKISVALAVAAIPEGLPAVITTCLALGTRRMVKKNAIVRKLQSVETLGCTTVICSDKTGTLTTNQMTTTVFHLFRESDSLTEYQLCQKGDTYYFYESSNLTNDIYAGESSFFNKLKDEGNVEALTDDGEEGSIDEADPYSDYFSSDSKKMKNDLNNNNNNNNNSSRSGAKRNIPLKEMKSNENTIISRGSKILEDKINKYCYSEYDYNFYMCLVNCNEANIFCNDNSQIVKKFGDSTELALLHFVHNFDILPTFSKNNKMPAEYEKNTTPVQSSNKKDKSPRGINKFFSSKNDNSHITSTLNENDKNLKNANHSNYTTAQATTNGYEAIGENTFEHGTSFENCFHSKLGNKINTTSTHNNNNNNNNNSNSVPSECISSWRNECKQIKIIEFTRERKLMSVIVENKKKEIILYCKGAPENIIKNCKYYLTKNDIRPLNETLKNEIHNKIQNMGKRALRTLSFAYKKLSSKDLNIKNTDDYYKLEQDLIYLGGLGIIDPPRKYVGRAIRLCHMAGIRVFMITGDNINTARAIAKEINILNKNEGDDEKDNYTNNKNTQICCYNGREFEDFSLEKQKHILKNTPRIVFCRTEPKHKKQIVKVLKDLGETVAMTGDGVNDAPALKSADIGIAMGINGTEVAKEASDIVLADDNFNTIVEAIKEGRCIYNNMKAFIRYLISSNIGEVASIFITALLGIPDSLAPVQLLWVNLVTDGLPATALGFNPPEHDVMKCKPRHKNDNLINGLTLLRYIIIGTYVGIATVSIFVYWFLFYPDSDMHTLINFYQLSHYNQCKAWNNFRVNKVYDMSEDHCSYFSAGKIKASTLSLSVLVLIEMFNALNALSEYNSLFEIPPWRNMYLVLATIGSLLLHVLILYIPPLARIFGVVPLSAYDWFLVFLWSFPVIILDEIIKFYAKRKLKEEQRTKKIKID
Description: (§1) The screening assay used here was developed from the protocol used by Pulcini et al. ([13]). A single colony of the yeast strain to be screened was picked and grown in 5 mL of selective medium until stationary phase was reached. The culture was diluted 100-fold in ampicillin-supplemented yeast extract-peptone-dextrose (YPD) medium to an OD at 620 nm (OD620) equivalent to that of lag phase. YPD medium was supplemented with an appropriate concentration of calcium, depending on the transformed strain. […] The optimal calcium concentration was periodically monitored and, if necessary, adjusted using a calcium concentration range of 10 to 30 mM. A final volume of 200 μL of the yeast culture was added to each well of a 96-well plate, with 5 technical replicates included per inhibitor. All inhibitors were dissolved in dimethyl sulfoxide (DMSO) unless otherwise stated. […] The 96-well plates were incubated at 30°C for 42 h. The yeast growth was estimated from the absorbance at 620 nm in a Tecan plate reader. Growth was normalized with the no-drug control to present data as percent growth. The data collected were analyzed using GraphPad Prism v9.0 (GraphPad software, San Diego, CA, U.S.A).

PfATP6 [2] = biological target: T1, PfATP6; assay: Yeast whole-cell growth inhibition (functional rescue) assay, K667[PfATP6]; assay type: cell-based; set-up: pUGpd containing the yeast-optimized coding region of PfATP6 from Plasmodium falciparum; expressed in transfected cells; host or cells: Saccharomyces cerevisiae K667 and K667Δpdr5::HIS
Description: as §1

[3] = tested on: cytosolic Ca2+ concentration in parasites; assay: Parasite calcium homeostasis (YC-Nano biosensor, flow cytometry); assay type: cell-based, Plasmodium falciparum; conditions: 25 μM, YC-Nano-expressing parasites
Description: Three biological replicates were carried out, after an initial blinded experiment.

PfATP6 [4] = biological target: T1, PfATP6; assay: DHA-biotin labeling / pulldown, Western blot and mass spectrometry; assay type: binding; set-up: pUGpd containing the yeast-optimized coding region of PfATP6 from Plasmodium falciparum; expressed in transfected cells; host or cells: Saccharomyces cerevisiae K667 and K667Δpdr5::HIS
Description: Both whole yeast and microsomes were prepared for mass spectrometric analysis by addition of 500 nM biotin-tagged DHA probe to 200 μL (∼0.6 mg protein) of yeast microsome preparation or 10 μM probe to 50 to 100 mL yeast culture at an OD620 of 1.0 to 1.5 (∼35 to 70 mg total protein) and incubation for 4 h at 30°C. For competition studies, 25× artesunate was added and incubated for 30 min before addition of the probe and incubation for 4 h at 30°C. Samples were then acetone precipitated by adding 4 volumes of −20°C acetone/water (4:1) to the yeast pellet or microsomal pellet and incubating the mixture for 2 h to overnight at −20°C. The samples were then pelleted at 13,000 to 16,000 × g for 10 min at 0°C to 4°C and washed twice with −20°C acetone/water solution. After a final centrifugation, pellets were dried in a freeze-drier for 1 h. Subsequent pulldowns and liquid chromatography-tandem mass spectrometry were performed as described by Wang et al. ([18]).
A 0.3-mg aliquot of PfATP6-enriched membrane vesicles, as well as an aliquot of SERCA1a and vector-only membrane vesicles, were thawed on ice. One-half of each aliquot (0.15 mg) was preincubated with 12.5 μM artesunate at 30°C for 30 min. Then, all samples had 500 nM DHA-biotin probe added (NewChem Technologies) and were incubated at 30°C for 4 h. […] Blots were analyzed using the Odyssey scanner system. […]

Plasmodium falciparum = assay: In vitro parasite assay ([3H]hypoxanthine uptake); assay type: cell-based; conditions: parasites in vitro, read-out: antiparasitic potency IC50
Description: Inhibitor IC50s were calculated in parasite assays following the protocol described by Desjardins et al. ([52]). Briefly, cultures were synchronized to ring stage by D-sorbitol lysis, using a 5% D-sorbitol solution. The parasites were diluted to a final parasitemia of 1%. Hypoxanthine-free medium was added to give a hematocrit level of 4%. A 2-fold dilution series of the inhibitors in hypoxanthine-free medium was prepared, and 100 μL of each inhibitor concentration was seeded in a 96-well plate, with 5 technical replicates of each included. Two no-inhibitor controls, i.e., hypoxanthine-free medium only, were included. Plates were incubated at 37°C in 5% CO2 for 24 h. After 24 h, [^3H]hypoxanthine was added to each well to a final concentration of 0.5 μCi/well, and the plates were incubated for a further 24 h. Plates were then freeze-thawed to lyse the cells, and the [^3H]hypoxanthine uptake was measured in a Beckman scintillation counter.

PfATP6 [5] = biological target: T1, PfATP6; assay: In vitro activity assay, PfATP6 (membrane-bound); assay type: biochemical; set-up: pUGpd containing the yeast-optimized coding region of PfATP6 from Plasmodium falciparum; expressed in transfected cells; conditions: 1 μM free calcium
Description: Activity assays were performed as described by Longland et al. ([55]) and LeBel et al. ([56]), except that the reaction mixtures were incubated at 30°C instead of 37°C. […] Then, 5.8 mM ATP was added and incubated for an additional 15 min at 30°C. The reaction was stopped with 0.5 mL 6.5% trichloroacetic acid (TCA) on ice, and the mixture was centrifuged at 4°C for 10 min at 16,000 × g; 0.5 mL of the supernatant was added to 1.5 mL of copper acetate buffer (0.25% copper sulfate pentahydrate, 4.6% sodium acetate trihydrate, dissolved in 2 M acetic acid [pH 4.0]) and mixed by vortex-mixing before the addition of 0.25 mL of 5% ammonium molybdate, followed by 0.25 mL METOL buffer (2% p-methyl-aminophenol sulfate, 5% sodium sulfite). Samples were incubated for 10 min, and the absorbance was measured at 870 nm in a spectrophotometer. The Pi standard was 0.4387 g/100 mL KH2PO4.

SMILES	IC50 (PfATP6 [1])	Fold difference (PfATP6 [1])	IC50 (PfATP6 [2])	also measured
CO[C@H]1O[C@@H]2O[C@@]3(C)CC[C@H]4[C@H](C)CC[C@@H]([C@H]1C)[C@@]24OO3 [Artemether]	3.4 µM	5^e	15.7 µM	approximate IC10 (PfATP6 [1]; fitness cost assays, drug pressure): ~1 µM; IC80 (PfATP6 [1]; read-out: approximate yeast IC80): ~1 µM
C[C@@H]1CC[C@H]2[C@@H](C)C(=O)O[C@@H]3O[C@@]4(C)CC[C@@H]1[C@]32OO4 [Artemisinin]	1.8 µM		10.6 µM	
C[C@H]1[C@H](N2CCS(=O)(=O)CC2)O[C@@H]2O[C@@]3(C)CC[C@H]4[C@H](C)CC[C@@H]1[C@@]24OO3 [Artemisone]	0.9 µM	4^c	3.6 µM	change in cytosolic Ca2+ concentration [3]: significantly increased; change in cytosolic Ca2+ concentration ([3]; listed as artemisone): sustained elevation
C[C@H]1[C@H](OC(=O)CCC(=O)O)O[C@@H]2O[C@@]3(C)CC[C@H]4[C@H](C)CC[C@@H]1[C@@]24OO3 [Artesunate]	3.7 µM	4^d	14.8 µM	competition with tagged DHA for PfATP6 (PfATP6 [4]; preincubation with excess artesunate): competed with the tagged DHA
C[C@H]1[C@@H](O)O[C@@H]2O[C@@]3(C)CC[C@H]4[C@H](C)CC[C@@H]1[C@@]24OO3 [DHA, dihydroartemisinin]	2.1 µM	11^c	23.8 µM	IC50 (Plasmodium falciparum): 0.0025 µM; in vitro activity of PfATP6 versus no drug control (PfATP6 [5]): No significant
Oc1ccc(O)cc1 [benzohydroquinone]				inhibition of PfATP6 in compound screen (PfATP6 [1]): limited success
CC1CCC2C(C)C(OC(=O)CCOCCOCCOCCOCCNC(=O)CCCCC3SCC4NC(=O)NC43)OC3OC4(C)CCC1C32OO4 (stereo not drawn) [biotin-derivatized DHA]				alkylation/labeling of PfATP6 (PfATP6 [4]; membrane extracts and whole yeast, K667[PfATP6], mass spectrometry): alkylated; IC50 (Plasmodium falciparum): 0.005 µM
C[C@@H]1CC[C@H]2[C@@H](C)C(=O)O[C@@H]3O[C@@]4(C)CC[C@@H]1[C@]32O4 [deoxyartemisinin]				in vitro activity of PfATP6 versus no drug control (PfATP6 [5]): No significant
Cc1cc(O)c2c(=O)c3c(O)cc(O)c4c5c(O)cc(O)c6c(=O)c7c(O)cc(C)c8c1c2c(c34)c(c78)c65 [hypericin]				inhibition of PfATP6 in compound screen (PfATP6 [1]): limited success
C[C@H]1O[C@@H](O[C@H]2CC[C@@]3(C)[C@@H](CC[C@]4(C)[C@@H]3C=C[C@]35OC[C@@]6(CCC(C)(C)C[C@H]63)[C@H](O)C[C@]54C)[C@]2(C)CO)[C@H](O)[C@@H](O[C@@H]2O[C@H](CO)[C@@H](O)[C@H](O)[C@H]2O)[C@H]1O [saikosaponin, Saikosaponin D]				concentration at which PfATP6 was inhibited (PfATP6 [1]; inhibited only at high concentrations): > 100 µM
